Experimental data from the supplement of paper PMC11424490.
Where a name gives a salt, the structure may show the parent alone.

What was measured:
NCI-H2122 = experiment: combination cScore with adagrasib (Bliss gap around IC50) (%PoC); higher = stronger additive effect
Procedure, shortened: (§1)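 Scores represent the average Bliss-independence gap, expected minus measured viability, in a field surrounding both monotherapy IC50s, with the top concentrations used when no IC50 was reached. Cells (NCI-H2122, NCI-H358, SW837) were seeded at 500 or 800 per well in 384-well plates, dosed in matrices at 24 h and grown for 72 h, with SW837 grown for 144 h. Viability was measured by CellTiter-Glo, normalised to vehicle wells and fitted with four-parameter curves.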

SW837 = experiment: as above
Procedure, shortened: as §1

Row | Structure (SMILES) | combination cScore with adagrasib (NCI-H2122) | combination cScore with adagrasib (SW837)
1 | Cc1ccc(Nc2nccc(N(C)c3ccc4c(C)n(C)nc4c3)n2)cc1S(N)(=O)=O [Pazopanib] + C=C(F)C(=O)N1CCN(c2nc(OC[C@@H]3CCCN3C)nc3c2CCN(c2cccc4cccc(Cl)c24)C3)C[C@@H]1CC#N [adagrasib] | -6.25 | -7.8
2 | Nc1nc2[nH]cc(CCc3ccc(C(=O)N[C@@H](CCC(=O)O)C(=O)O)cc3)c2c(=O)[nH]1 [Pemetrexed] + C=C(F)C(=O)N1CCN(c2nc(OC[C@@H]3CCCN3C)nc3c2CCN(c2cccc4cccc(Cl)c24)C3)C[C@@H]1CC#N [adagrasib] | 2.77 | 5.08
3 | CC(C)(C)c1cc(NC(=O)Nc2ccc(-c3cn4c(n3)sc3cc(OCCN5CCOCC5)ccc34)cc2)no1 [Quizartinib] + C=C(F)C(=O)N1CCN(c2nc(OC[C@@H]3CCCN3C)nc3c2CCN(c2cccc4cccc(Cl)c24)C3)C[C@@H]1CC#N [adagrasib] | -3.38 | 0.28
4 | Cc1ncc(NC(=O)c2cccc(C(F)(F)F)c2)cc1-c1cnc(OC2CCOCC2)c(N2CCOCC2)c1 [RAF-709] + C=C(F)C(=O)N1CCN(c2nc(OC[C@@H]3CCCN3C)nc3c2CCN(c2cccc4cccc(Cl)c24)C3)C[C@@H]1CC#N [adagrasib] | 7.22 | 4.87
5 | CO[C@H]1C[C@@H]2CC[C@@H](C)[C@@](O)(O2)C(=O)C(=O)N2CCCC[C@H]2C(=O)O[C@H]([C@H](C)C[C@@H]2CC[C@@H](O)[C@H](OC)C2)CC(=O)[C@H](C)/C=C(\C)[C@@H](O)[C@@H](OC)C(=O)[C@H](C)C[C@H](C)/C=C/C=C/C=C/1C [Rapamycin] + C=C(F)C(=O)N1CCN(c2nc(OC[C@@H]3CCCN3C)nc3c2CCN(c2cccc4cccc(Cl)c24)C3)C[C@@H]1CC#N [adagrasib] | 4.11 | 6.52
6 | CNC(=O)c1cc(Oc2ccc(NC(=O)Nc3ccc(Cl)c(C(F)(F)F)c3)c(F)c2)ccn1 [Regorafenib] + C=C(F)C(=O)N1CCN(c2nc(OC[C@@H]3CCCN3C)nc3c2CCN(c2cccc4cccc(Cl)c24)C3)C[C@@H]1CC#N [adagrasib] | -3.41 | -1.71
7 | COc1cc(OC)c(/C=C/S(=O)(=O)Cc2ccc(OC)c(NCC(=O)O)c2)c(OC)c1 [Rigosertib] + C=C(F)C(=O)N1CCN(c2nc(OC[C@@H]3CCCN3C)nc3c2CCN(c2cccc4cccc(Cl)c24)C3)C[C@@H]1CC#N [adagrasib] | 1.67 | 7.78
8 | C/C=C1\NC(=O)[C@H]2CSSCC/C=C/[C@H](CC(=O)N[C@H](C(C)C)C(=O)N2)OC(=O)[C@H](C(C)C)NC1=O [Romidepsin] + C=C(F)C(=O)N1CCN(c2nc(OC[C@@H]3CCCN3C)nc3c2CCN(c2cccc4cccc(Cl)c24)C3)C[C@@H]1CC#N [adagrasib] | -1.65 | 6.42
9 | N#CC[C@H](C1CCCC1)n1cc(-c2ncnc3[nH]ccc23)cn1 [Ruxolitinib] + C=C(F)C(=O)N1CCN(c2nc(OC[C@@H]3CCCN3C)nc3c2CCN(c2cccc4cccc(Cl)c24)C3)C[C@@H]1CC#N [adagrasib] | -2.1 | 0.75
10 | CC(C)(C)c1ccc(S(=O)(=O)NCc2ccc(C(=O)Nc3cccnc3)cc2)cc1 [STF-31] + C=C(F)C(=O)N1CCN(c2nc(OC[C@@H]3CCCN3C)nc3c2CCN(c2cccc4cccc(Cl)c24)C3)C[C@@H]1CC#N [adagrasib] | -2.08 | 10.7
11 | CNC(=O)c1cc(Oc2ccc(NC(=O)Nc3ccc(Cl)c(C(F)(F)F)c3)cc2)ccn1 [Sorafenib] + C=C(F)C(=O)N1CCN(c2nc(OC[C@@H]3CCCN3C)nc3c2CCN(c2cccc4cccc(Cl)c24)C3)C[C@@H]1CC#N [adagrasib] | -6.98 | -4.84
12 | CCN(CC)CCNC(=O)c1c(C)[nH]c(/C=C2\C(=O)Nc3ccc(F)cc32)c1C [Sunitinib] + C=C(F)C(=O)N1CCN(c2nc(OC[C@@H]3CCCN3C)nc3c2CCN(c2cccc4cccc(Cl)c24)C3)C[C@@H]1CC#N [adagrasib] | 1.03 | 4.56
13 | Cn1nnc2c(C(N)=O)ncn2c1=O [Temozolomide] + C=C(F)C(=O)N1CCN(c2nc(OC[C@@H]3CCCN3C)nc3c2CCN(c2cccc4cccc(Cl)c24)C3)C[C@@H]1CC#N [adagrasib] | 12.1 | 4.71
14 | C[C@@H]1CCN(C(=O)CC#N)C[C@@H]1N(C)c1ncnc2[nH]ccc12 [Tofacitinib citrate] + C=C(F)C(=O)N1CCN(c2nc(OC[C@@H]3CCCN3C)nc3c2CCN(c2cccc4cccc(Cl)c24)C3)C[C@@H]1CC#N [adagrasib] | -3.58 | 5.3
15 | CC(C)C[C@@H](C(=O)N[C@H](C(=O)OC1CCCC1)c1ccccc1)[C@H](O)C(=O)NO [Tosedostat] + C=C(F)C(=O)N1CCN(c2nc(OC[C@@H]3CCCN3C)nc3c2CCN(c2cccc4cccc(Cl)c24)C3)C[C@@H]1CC#N [adagrasib] | 1.4 | 19.8
16 | CC(=O)Nc1cccc(-n2c(=O)n(C3CC3)c(=O)c3c(Nc4ccc(I)cc4F)n(C)c(=O)c(C)c32)c1 [Trametinib] + C=C(F)C(=O)N1CCN(c2nc(OC[C@@H]3CCCN3C)nc3c2CCN(c2cccc4cccc(Cl)c24)C3)C[C@@H]1CC#N [adagrasib] | 6.74 | 13.6
17 | CC1=C(/C=C/C(C)=C/C=C/C(C)=C/C(=O)O)C(C)(C)CCC1 [Tretinoin] + C=C(F)C(=O)N1CCN(c2nc(OC[C@@H]3CCCN3C)nc3c2CCN(c2cccc4cccc(Cl)c24)C3)C[C@@H]1CC#N [adagrasib] | -2.19 | 2.87
18 | COc1cc2c(NC3CCN(C(C)C)CC3)nc(C3CCCCC3)nc2cc1OCCCN1CCCC1 [UNC0638] + C=C(F)C(=O)N1CCN(c2nc(OC[C@@H]3CCCN3C)nc3c2CCN(c2cccc4cccc(Cl)c24)C3)C[C@@H]1CC#N [adagrasib] | 5.77 | 13.2
19 | CC(C)Nc1cc(-c2c[nH]c(C(=O)N[C@H](CO)c3cccc(Cl)c3)c2)c(Cl)cn1 [Ulixertinib] + C=C(F)C(=O)N1CCN(c2nc(OC[C@@H]3CCCN3C)nc3c2CCN(c2cccc4cccc(Cl)c24)C3)C[C@@H]1CC#N [adagrasib] | -12.2 | 2.22
20 | CS(=O)(=O)c1ccc(-c2cnc(N)c(C(=O)Nc3ccccc3)n2)cc1 [VE-821] + C=C(F)C(=O)N1CCN(c2nc(OC[C@@H]3CCCN3C)nc3c2CCN(c2cccc4cccc(Cl)c24)C3)C[C@@H]1CC#N [adagrasib] | 4.3 | 12.8
21 | CNCc1ccc(-c2cc(-c3nc(-c4ccc(S(=O)(=O)C(C)C)cc4)cnc3N)on2)cc1 [VE-822/VX-970] + C=C(F)C(=O)N1CCN(c2nc(OC[C@@H]3CCCN3C)nc3c2CCN(c2cccc4cccc(Cl)c24)C3)C[C@@H]1CC#N [adagrasib] | 3.08 | -9.66
22 | CCCC(CCC)C(=O)O [Valproic acid] + C=C(F)C(=O)N1CCN(c2nc(OC[C@@H]3CCCN3C)nc3c2CCN(c2cccc4cccc(Cl)c24)C3)C[C@@H]1CC#N [adagrasib] | -2.93 | 2.04
